According to patent US8901118B2, “Compounds and methods for kinase modulation, and indications therefor” (Plexxikon Inc., priority 2010, dated 2014):
pIC50: −log10 of the molar value.

Columns and labels:
BCR-NTRK2 BaF3 cells = biological target: T1, BCR-NTRK2 BaF3 cells (Homo sapiens, UniProt Q16620); assay: BaF3 BCR-NTRK2 cell proliferation assay (ATPlite); format: cell-based; details: read-out: Inhibition of Cell Proliferation IC50, BCR/BaF3 TrkB
T1 construct: fused on or other part: P11274 (Breakpoint cluster region protein)
T1 sequence (Q16620 538-807): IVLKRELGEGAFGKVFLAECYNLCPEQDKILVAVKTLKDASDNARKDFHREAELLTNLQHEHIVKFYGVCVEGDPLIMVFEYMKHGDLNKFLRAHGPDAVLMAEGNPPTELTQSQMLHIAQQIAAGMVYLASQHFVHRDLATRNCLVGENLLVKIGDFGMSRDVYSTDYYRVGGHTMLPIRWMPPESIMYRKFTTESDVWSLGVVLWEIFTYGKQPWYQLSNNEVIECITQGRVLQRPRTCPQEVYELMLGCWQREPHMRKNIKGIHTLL
Procedure: Compounds are assessed in a variety of cell based assays. For example BaF3 cells engineered with any of BCR-FMS, BCR-KIT, BCR-FLT3, BCR-NTRK1, BCR-NTRK2, and BCR-NTRK3, are used in cell proliferation assays to assess inhibitory activity of Fms, Kit, Flt-3, TrkA, TrkB, and TrkC, respectively. An MV-4-11 (leukemia) cell proliferation assay is used to assess inhibitory activity in Flt-3, and SKNSH (human neuroblastoma) cell proliferation assay is used to assess efficacy of Fms/Trk inhibitors. Additional cells may be assayed similarly to assess the efficacy of Fms/Trk inhibitors, such as MiaPaCa (human pancreatic cancer) and Capan-1 (human pancreatic carcinoma) cells. Reagent and assay conditions are as follows: • BaF3 cells: • Maintained in RPMI containing 10% FBS, 1% PenStrep, 1% NEAA, and 1% L-Glutamine, supplemented with 1 mg/mL G418 and 5% WEHI-CM (or recombinant murine IL-3). • Confluent cells are split 1:50 to 1:100 every 3-4 days. • MV-4-11 cells: • Maintained in Iscove's Modified Dulbecco's Medium containing 10% FBS. • Confluent cells are split 1:4 every 3-4 days. • SKNSH cells: RPMI containing 10% FBS. On day 1, cells are counted, then centrifuged in a conical tube for 5 minutes at 1000 rpm. The supernatant is removed and cells are re-suspended as follows: • BaF3: resuspend in growth media +1 mg/mL G418 (without WEHFIL-3) to 2×10^5 cells/mL. • MV-4-11: resuspend in growth media to 5×10^5 cells/mL. • SKNSH: resuspend in growth media to 2×10^4 cells/mL. The cells are plated (50 μL, 150 μL for SKNSH cells) in each well of a 96-well dish (Corning 3610) and incubated at 37° C. in 5% CO2 overnight, cells plated to a final concentration of cells as follows: • BaF3: 10,000 cells per well. • MV-4-11: 25,000 cells per well. • SKNSH: 3,000 cells per well. On day 2, compound at a maximum concentration of 5 mM is serially diluted 1:3 for a total of 8 point titration with DMSO as a control. A 1 μL aliquot of each dilution point is added to 249 μL growth media and 50 μL is added to a well containing cells, providing 10 μM compound for the maximum concentration point. The cells are incubated for 3 days at 37° C. in 5% CO2. For SKNSH cells, a 0.75 μL aliquot of appropriate dilution in DMSO is added to 150 μL of cells. On day 5, ATPlite 1 step Luminescence Assay System (Perkin Elmer #6016739) is brought to room temperature along with the cell cultures. ATPlite is added to each well as follows: • BaF3: 25 μL per well. • MV-4-11: 40 μL per well. • SKNSH: 20 μL per well. The cells are incubated at room temperature for 10 minutes, then luminescence is read on Safire reader. The measured luminescence correlates directly with cell number, such that the reading as a function of compound concentration is used to determine the IC50 value.
It is understood that the results of these assays may vary as assay conditions are varied. Inhibition levels determined under the conditions described herein represent a relative activity for the compounds tested under the specific conditions employed. The cell based assays are likely to show variability due to the complexity of the system and the sensitivity thereof to any changes in the assay conditions. […] Results for compounds that are tested and show substantially no inhibition below the highest tested concentration are represented as “-” in the tables below. In some instances, the compounds were not tested in all of the assays, or assay results were not valid, as indicated by NA in the tables below.

CYP2C9 = CYP2C9 (Homo sapiens, UniProt P11712); assay: CYP2C9 inhibition (fluorescent substrate MFC); format: in vitro ADME; details: read-out: Cyp IC50 2C9
Sequence of CYP2C9 (P11712 whole entry): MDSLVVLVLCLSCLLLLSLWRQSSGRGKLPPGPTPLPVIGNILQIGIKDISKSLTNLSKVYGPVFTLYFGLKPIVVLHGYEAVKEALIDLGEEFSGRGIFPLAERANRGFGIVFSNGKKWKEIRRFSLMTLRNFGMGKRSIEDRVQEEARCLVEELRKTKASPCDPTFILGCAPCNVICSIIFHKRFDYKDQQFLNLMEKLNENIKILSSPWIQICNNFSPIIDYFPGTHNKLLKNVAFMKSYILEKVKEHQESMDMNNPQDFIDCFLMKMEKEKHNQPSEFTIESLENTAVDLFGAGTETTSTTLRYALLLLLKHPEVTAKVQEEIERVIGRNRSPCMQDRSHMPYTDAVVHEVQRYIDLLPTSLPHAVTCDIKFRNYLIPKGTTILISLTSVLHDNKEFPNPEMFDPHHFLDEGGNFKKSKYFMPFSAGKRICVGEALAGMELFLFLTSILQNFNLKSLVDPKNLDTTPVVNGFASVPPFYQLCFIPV
Procedure: CYP (Cytochrome P450) enzymes are the major drug metabolizing enzymes present in the liver. The inhibition of CYP enzyme activity (IC50) for each of CYP1A2, CYP2C19, CYP2C9, CYP2D6, CYP3A4(BFC) and CYP3A4(BQ) is determined for compounds, where inhibition of metabolism of a known substrate leads to a decrease in the fluorescence of the metabolized product. The fluorescence of the product is monitored as a function of compound concentration. Compounds are dissolved in DMSO to a concentration of 100 mM. These are diluted 1 μL into 82 μL of acetonitrile. An 11 μL aliquot of this solution is then added to 204 μL of cofactor mix (1.3% NADPH Regeneration system Solution A, 1.04% NADPH Regeneration system Solution B from BD Biosciences, 5% acetonitrile and 0.05% DMSO). These are then serially diluted 1:1 (160 μL to 160 μL co-factor mix) for a total of 10 points. A 10 μL aliquot of this final mixture is dispensed into 384 well assay plates and incubated for 10 minutes at 37° C. […] Assay plates are incubated at 37° C. (CYP1A2-15 min; CYP2C9-45 min; CYP2C19, 2D6 and 3A4-30 min) and read in a Tecan Safire 2 plate reader (CYP1A2, 2C19 and 3A4 409 ex/460 em; CYP2C9 and 2D6 409 ex/530 em). The signal versus compound concentration is used to determine the IC50. The enzymes and substrates for this assay are obtained from BD Biosciences.

pIC50 (BCR-NTRK2 BaF3 cells)	pIC50 (CYP2C9)	Compound
> 7.00	< 5.00	O=C(c1ccc(NC2CCC(F)(F)CC2)nc1)c1c[nH]c2ncnc(NCC(F)(F)F)c12 [Compound P-4087, [6-[(4,4-difluorocyclohexyl)amino]-3-pyridyl]-[4-(2,2,2-trifluoroethylamino)-7H-pyrrolo[2,3-d]pyrimidin-5-yl]methanone]
> 7.00	< 5.00	O=C(c1ccc(NC2CCC(F)(F)CC2)nc1)c1c[nH]c2ncnc(NC3CC3)c12 [Compound P-4088, [4-(cyclopropylamino)-7H-pyrrolo[2,3-d]pyrimidin-5-yl]-[6-[(4,4-difluorocyclohexyl)amino]-3-pyridyl]methanone]
> 7.00	< 5.00	CNc1ncnc2[nH]cc(C(=O)c3ccc(NC4CCC(F)(F)CC4)nc3)c12 [Compound P-4089, [6-[(4,4-difluorocyclohexyl)amino]-3-pyridyl]-[4-(methylamino)-7H-pyrrolo[2,3-d]pyrimidin-5-yl]methanone]
> 8.00	< 5.00	O=C(c1ccc(Nc2ccc(C3CC3)nc2)nc1F)c1c[nH]c2ncnc(NCC(F)(F)F)c12 [Compound P-4090, [6-[(6-cyclopropyl-3-pyridyl)amino]-2-fluoro-3-pyridyl]-[4-(2,2,2-trifluoroethylamino)-7H-pyrrolo[2,3-d]pyrimidin-5-yl]methanone]
> 8.00	< 5.00	O=C(c1ccc(Nc2ccc(C(F)(F)F)nc2)nc1F)c1c[nH]c2ncnc(NC3CC3)c12 [Compound P-4091, [4-(cyclopropylamino)-7H-pyrrolo[2,3-d]pyrimidin-5-yl]-[2-fluoro-6-[[6-(trifluoromethyl)-3-pyridyl]amino]-3-pyridyl]methanone]
> 8.00	> 5.30	CNc1ncnc2[nH]cc(C(=O)c3ccc(Nc4ccc(C(F)(F)F)nc4)nc3F)c12 [Compound P-4092, [2-fluoro-6-[[6-(trifluoromethyl)-3-pyridyl]amino]-3-pyridyl]-[4-(methylamino)-7H-pyrrolo[2,3-d]pyrimidin-5-yl]methanone]
> 8.00	< 5.00	O=C(c1ccc(Nc2ccc(C3CC3)nc2)nc1F)c1c[nH]c2ncnc(NC3CC3)c12 [Compound P-4093, [4-(cyclopropylamino)-7H-pyrrolo[2,3-d]pyrimidin-5-yl]-[6-[(6-cyclopropyl-3-pyridyl)amino]-2-fluoro-3-pyridyl]methanone]
> 8.00	> 5.30	CNc1ncnc2[nH]cc(C(=O)c3ccc(Nc4ccc(C5CC5)nc4)nc3F)c12 [Compound P-4094, [6-[(6-cyclopropyl-3-pyridyl)amino]-2-fluoro-3-pyridyl]-[4-(methylamino)-7H-pyrrolo[2,3-d]pyrimidin-5-yl]methanone]
> 8.00	< 5.00	CCc1ccc(Nc2ccc(C(=O)c3c[nH]c4ncnc(NC5CCC5)c34)c(F)n2)cn1 [Compound P-4095, [4-(cyclobutylamino)-7H-pyrrolo[2,3-d]pyrimidin-5-yl]-[6-[(6-ethyl-3-pyridyl)amino]-2-fluoro-3-pyridyl]methanone]
> 8.00	> 5.30	CCc1ccc(Nc2ccc(C(=O)c3c[nH]c4ncnc(NC5CCC(F)(F)CC5)c34)c(F)n2)cn1 [Compound P-4096, [4-[(4,4-difluorocyclohexyl)amino]-7H-pyrrolo[2,3-d]pyrimidin-5-yl]-[6-[(6-ethyl-3-pyridyl)amino]-2-fluoro-3-pyridyl]methanone]
> 7.00	> 5.30	CCc1ccc(Nc2ccc(C(=O)c3c[nH]c4ncnc(N[C@@H](C)c5ccc(F)cc5)c34)c(F)n2)cn1 [Compound P-4097, [6-[(6-ethyl-3-pyridyl)amino]-2-fluoro-3-pyridyl]-[4-[[(1S)-1-(4-fluorophenyl)ethyl]amino]-7H-pyrrolo[2,3-d]pyrimidin-5-yl]methanone]
> 8.00	> 5.30	CCc1ccc(Nc2ccc(C(=O)c3c[nH]c4ncnc(NCCCOC)c34)c(F)n2)cn1 [Compound P-4098, [6-[(6-ethyl-3-pyridyl)amino]-2-fluoro-3-pyridyl]-[4-(3-methoxypropylamino)-7H-pyrrolo[2,3-d]pyrimidin-5-yl]methanone]
> 8.00	> 5.30	CCc1ccc(Nc2ccc(C(=O)c3c[nH]c4ncnc(NC5CCCC5)c34)c(F)n2)cn1 [Compound P-4099, [4-(cyclopentylamino)-7H-pyrrolo[2,3-d]pyrimidin-5-yl]-[6-[(6-ethyl-3-pyridyl)amino]-2-fluoro-3-pyridyl]methanone]
> 8.00	> 5.30	CCCCNc1ncnc2[nH]cc(C(=O)c3ccc(Nc4ccc(CC)nc4)nc3F)c12 [Compound P-4100, [4-(butylamino)-7H-pyrrolo[2,3-d]pyrimidin-5-yl]-[6-[(6-ethyl-3-pyridyl)amino]-2-fluoro-3-pyridyl]methanone]
> 8.00	5.00 to 5.30	CC(C)Nc1ncnc2[nH]cc(C(=O)c3ccc(NC4CCCCC4)nc3F)c12 [Compound P-4101, [6-(cyclohexylamino)-2-fluoro-3-pyridyl]-[4-(isopropylamino)-7H-pyrrolo[2,3-d]pyrimidin-5-yl]methanone]
> 7.00	> 5.30	CNc1ncnc2[nH]cc(C(=O)c3ccc(NC4CCCCC4)nc3F)c12 [Compound P-4102, [6-(cyclohexylamino)-2-fluoro-3-pyridyl]-[4-(methylamino)-7H-pyrrolo[2,3-d]pyrimidin-5-yl]methanone]
< 6.00	< 5.00	COc1cncc(Nc2ccc(C(=O)c3c[nH]c4ncnc(NCC(F)(F)F)c34)c(F)n2)c1 [Compound P-4103, [2-fluoro-6-[(5-methoxy-3-pyridyl)amino]-3-pyridyl]-[4-(2,2,2-trifluoroethylamino)-7H-pyrrolo[2,3-d]pyrimidin-5-yl]methanone]
> 7.00	< 5.00	COc1cncc(Nc2ccc(C(=O)c3c[nH]c4ncnc(NC5CCCCC5)c34)c(F)n2)c1 [Compound P-4104, [4-(cyclohexylamino)-7H-pyrrolo[2,3-d]pyrimidin-5-yl]-[2-fluoro-6-[(5-methoxy-3-pyridyl)amino]-3-pyridyl]methanone]
> 6.00	< 5.00	CCCNc1ncnc2[nH]cc(C(=O)c3ccc(Nc4cncc(OC)c4)nc3F)c12 [Compound P-4105, [2-fluoro-6-[(5-methoxy-3-pyridyl)amino]-3-pyridyl]-[4-(propylamino)-7H-pyrrolo[2,3-d]pyrimidin-5-yl]methanone]
